{
  "source": "patent US7939558B2",
  "about": "“Compounds having activity in increasing ion transport by mutant-CFTR and uses thereof” (The Regents of the University of California, priority 2004, dated 2011)",
  "key": {"[1]": {"assay": "Stability in hepatic microsomes (LCMS)", "format": "in vitro ADME, rat", "method": "A minor metabolite was also detected at 7.43 min with m/z 428. […] Compound S-3 was ˜35% degraded after a 1 hour incubation with liver microsomes in presence of NADPH."}, "G551D-CFTR": {"molecular_target": "G551D-CFTR (Homo sapiens, UniProt P13569, G551D)", "sequence (P13569 whole entry G551D)": "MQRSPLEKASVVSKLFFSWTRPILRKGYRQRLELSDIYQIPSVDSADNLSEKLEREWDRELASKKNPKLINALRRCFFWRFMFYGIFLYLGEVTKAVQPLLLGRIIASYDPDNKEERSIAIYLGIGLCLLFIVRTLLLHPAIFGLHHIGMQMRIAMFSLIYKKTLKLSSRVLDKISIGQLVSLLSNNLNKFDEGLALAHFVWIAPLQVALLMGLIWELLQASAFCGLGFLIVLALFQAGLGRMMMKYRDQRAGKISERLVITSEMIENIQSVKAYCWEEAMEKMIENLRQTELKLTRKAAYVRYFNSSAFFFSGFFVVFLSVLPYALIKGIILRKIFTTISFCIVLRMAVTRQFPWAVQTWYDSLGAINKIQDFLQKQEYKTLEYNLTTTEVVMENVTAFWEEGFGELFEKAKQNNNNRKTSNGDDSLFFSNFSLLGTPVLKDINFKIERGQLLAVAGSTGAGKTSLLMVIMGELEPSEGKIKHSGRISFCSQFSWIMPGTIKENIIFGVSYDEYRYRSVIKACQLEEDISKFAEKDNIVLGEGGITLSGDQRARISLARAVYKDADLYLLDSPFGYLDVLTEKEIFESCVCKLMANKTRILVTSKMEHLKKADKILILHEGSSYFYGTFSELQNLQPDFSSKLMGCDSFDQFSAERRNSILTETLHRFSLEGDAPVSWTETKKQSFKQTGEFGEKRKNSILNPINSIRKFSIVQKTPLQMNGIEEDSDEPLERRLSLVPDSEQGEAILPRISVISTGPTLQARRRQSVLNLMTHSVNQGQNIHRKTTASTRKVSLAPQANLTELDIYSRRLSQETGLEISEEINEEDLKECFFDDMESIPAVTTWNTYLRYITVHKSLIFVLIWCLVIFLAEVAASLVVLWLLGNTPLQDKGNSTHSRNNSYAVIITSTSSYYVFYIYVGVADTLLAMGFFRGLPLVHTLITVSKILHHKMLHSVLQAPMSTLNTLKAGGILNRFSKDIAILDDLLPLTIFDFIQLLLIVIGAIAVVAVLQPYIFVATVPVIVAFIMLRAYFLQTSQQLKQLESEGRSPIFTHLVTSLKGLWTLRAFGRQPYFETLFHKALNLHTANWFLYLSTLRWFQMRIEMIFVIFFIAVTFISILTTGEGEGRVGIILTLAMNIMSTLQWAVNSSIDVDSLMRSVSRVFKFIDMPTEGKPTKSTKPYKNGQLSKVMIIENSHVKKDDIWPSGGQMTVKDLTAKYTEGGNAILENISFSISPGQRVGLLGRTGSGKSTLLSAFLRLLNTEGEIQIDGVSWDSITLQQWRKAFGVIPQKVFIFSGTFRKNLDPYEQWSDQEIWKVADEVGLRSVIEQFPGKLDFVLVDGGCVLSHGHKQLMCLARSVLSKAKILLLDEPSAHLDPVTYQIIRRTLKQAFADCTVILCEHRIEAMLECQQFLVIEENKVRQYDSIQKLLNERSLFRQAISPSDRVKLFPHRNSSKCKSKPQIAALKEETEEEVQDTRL", "assay": "Short-circuit current in nasal polyp epithelial cells from a CF patient with G551D-CFTR mutation", "format": "cell-based", "set-up": "endogenous in cells; host or cells: primary human nasal epithelial cells (A8) and nasal polyp epithelial cells (A12) from CF patients with G551D", "settings": "after amiloride and maximal forskolin", "method": "Epithelial cells were plated on permeable supports to generate polarized monolayers resembling the epithelium in vivo. After blocking the epithelial sodium channel with amiloride, CFTR-dependent chloride secretion was stimulated with forskolin at maximal concentration."}},
  "data": [
    {"smiles": "CC(C)c1ccc(NC(=O)C(c2ccccc2)N(C)C(=O)Cc2c[nH]c3ccccc23)cc1", "note": "(stereo not drawn) [Compound P-1, 2-[(2-1H-Indol-3-yl-acetyl)-methyl-amino]-N-(4-isopropyl-phenyl)-2-phenyl-acetamide]", "values": [
      {"measurement": "compound metabolized / degraded", "setting": "[1]; 10 μM, 1 hour, 37° C., presence of NADPH", "value": "Approximately 90%"},
      {"measurement": "non-metabolized compound remaining", "setting": "[1]; after 2 hours", "value": "not detectable"},
      {"measurement": "CFTR-mediated currents", "setting": "G551D-CFTR", "value": "further increased CFTR-mediated currents"}
    ]}
  ]
}
